# According to patent US20060063785A1, “Substituted pyrazolo[1,5-a] pyrimidines and process for making same” (priority 2004, published 2006):
# Read-outs that look alike come from different tables or passages of the source.
# Assays:
# [1] = test system: 80S14 (p21-deficient) cells; test: Determination of selectivity of compounds for p21-/- cells: IC50 in 80S14 cells (SRB); type: cell-based, human
# Description: • 1. 80S14 (p21-deficient) cells were cultured in RPMI 1640 medium (Gibco/Invitrogen Life technologies) supplemented with 10% fetal bovine serum (FBS, Gibco) and 10 μg/ml gentamycin (Gibco). Cells were maintained at 37° C. under 7% CO2. • 2. Cells were plated at 6×10^4/ml (0.2 ml/well; 12,000 cells/well) in 96-well microtiter plates (Falcon or Corning/Costar) and incubated at 37° C. overnight (18-24 hours). • 3. 2-5 μl of the test agent-[200 μg/ml stock in 20% DMSO/20 mM HEPES, pH 7.5 (Gibco)] was added to each well to achieve a final concentration of 2-5 μg/ml. Cells were incubated with the test compounds for 5 days at 37° C. • 4. Surviving cells were fixed with 50 μl 50% trichloroacetic acid (Sigma; 10% final concentration) for 1 hour at 4° C. • 5. Plates were rinsed twice with water (0.3 ml per wash using MRD8 robot), and allowed to dry. • 6. Sulforhodamine B (SRB) (Sigma; 0.4% in 1% acetic acid, 50 μl per well; MRD8 robot) was added and plates kept at room temperature for 10 minutes. • 7. Excess dye was removed by washing with 1% acetic acid (3 times, 0.3 ml per wash; MRD8 robot) and allowed to dry. • 8. The dye was solubilized in Tris base (Sigma; 10 mM, 150 μl per well). Plates were kept at room temperature for 30 minutes to allow the dye to diffuse. • 9. Absorbance was measured at 540 nm. • 10. The percentage of cells surviving drug treatment relative to control wells (no drug) was determined. • 11. The difference in % cell survival between the two cell lines was calculated. • 12. Compounds producing a difference score of >50 were considered to be selective for the p21-deficient cells and were evaluated further. Determination of Selectivity of Compounds for p21−/− Cells: • 1. 80S14 cells were cultured as described above. • 2. Cells were seeded in 96-well microtiter plates at 12,000 cells/well (either 0.15 ml/well of 8×10^4 cells/ml suspension, or 0.2 ml/well of 6×10^4 cells/ml suspension). Plates were incubated at 37° C. overnight (18-24 hours). • 3. Serial dilutions of the test agent were added to each well. Dilutions were prepared either in 40% DMSO/20% methanol/20 mM HEPES, pH 7.5 (Gibco) or directly in growth medium. One of two dose ranges were used: 5 pM to 50 μM or 170 pg/ml to 10 μg/ml. Cells were incubated with the test compounds for 5 days at 37° C. • 4. Surviving cells were fixed with 50 μl 50% trichloroacetic acid (Sigma; 10% final concentration) for 1 hour at 4° C. • 5. Plates were rinsed extensively in water, and allowed to dry. • 6. Sulforhodamine B (Sigma; 0.4% in 1% acetic acid, 70 μl per well) was added and plates kept at room temperature for 10 minutes. • 7. Excess dye was removed by washing 5 times with 1% acetic acid and plates were allowed to dry. • 8. The dye was solubilized in Tris base (Sigma; 10 mM, 150 μl per well). Plates were placed on a titer plate shaker (Lab Line Instruments) for 5 minutes to allow the dye to diffuse. • 9. Absorbance was measured at 560 nm.
# 10. The drug concentration which inhibits cell proliferation by 50% relative to untreated controls (IC50) was determined from cytotoxicity curves.
# LoVo Colon cell line = test: Cytotoxicity assay using LoVo colon cell line (SRB, IC50); type: cell-based; conditions: read-out: Inhibition of LoVo
# Description: Cytotoxicity Assay Using LoVo Colon Cell Line: • 1. LoVo Colon cell lines was cultured in RPMI 1640 medium (Gibco/Invitrogen Life Sciences) supplemented with 10% fetal bovine serum (FBS, Gibco) and 50 μg/ml gentamicin (Gibco). Cells were maintained at 37° C. under 7% CO2. • 2. Cells were seeded in 96-well microtiter plates (Corning/Costar) in a volume of 0.15 ml of growth medium (4000 cells/well). Plates were incubated at 37° C. overnight (18-24 hours). • 3. Serial dilutions of the test agent were added to each well. Dilutions were prepared in growth medium. One of two dose ranges was used: 5 pM to 20 μM or […] to 10 μg/ml. Cells were incubated with the test compounds for 4 days at 37° C. • 4. Surviving cells were processed using the SRB asay, as described above.
# 5. The drug concentration that inhibits cell proliferation by 50% relative to untreated controls (IC50) was determined from cytotoxicity curves using the LSW Toolbox graphing application.
# [2] = Cellular activity in 80S14 (p21-deficient) cells, SRB, class symbols, read-out: IC50 for 80S14
# [3] = Cellular activity in LoVo cell, 4 days incubation, SRB assay
# [4] = Homo sapiens, 80S14, 120 h, read-out: IC50 for 80S14 (μM)
# [5] = 80S14 (p21-deficient) cells, 5 days at 37° C., SRB, read-out: IC50 for 80S14
# [6] = LoVo colon cells, 4 days at 37° C., SRB
# [7] = Homo sapiens, 120 h, 80S14 (p21-deficient) cells, 5 days at 37° C., SRB, read-out: IC50 for 80S14
# [8] = Homo sapiens, 96 h, LoVo colon cells, 4 days at 37° C., SRB
# [9] = Homo sapiens, Cellular activity in 80S14 (p21-deficient) cells, SRB, class symbols, read-out: IC50 for 80S14
compound,measurement,setting,value
"3-(3,5-Dimethylphenyl)-7-[3-(2-ethyl-2H-tetrazol-5-yl)phenyllpyrazolo[1,5-a]pyrimidine [Example 384]",IC50,[1]; [2],1 to 10 µM
same,IC50,LoVo Colon cell line; [3],100 to 1000 nM
"3-Methyl-N-{^5-[3-(thien-2-ylcarbonyl)pyrazolo[1,5-a]pyrimidin-7-yl]thien-2-yl}butanamide [Example 240]",IC50,[1]; [2],1 to 10 µM
same,IC50,LoVo Colon cell line; [3],1000 to 20000 nM
"7-{3-[2-(Cyclobutylmethyl)-2H-tetraazol-5-yl]phenyl}-3-(3,5-dimethylphenyl)pyrazolo[1,5-a]pyrimidine [Example 381]",IC50,[1]; [2],1 to 10 µM
same,IC50,LoVo Colon cell line; [3],100 to 1000 nM
"C#CCOC(=O)Nc1cccc(-c2ccnc3c(C(=O)c4cccs4)cnn23)c1 [Example 13, prop-2-ynyl 3-[3-(thien-2-ylcarbonyl)pyrazolo[1,5-a]pyrimidin-7-yl]phenylcarbamate]",IC50,[1]; [4],< 1 µM
same,IC50,"LoVo Colon cell line; Homo sapiens, LoVo, 96 h",100 to 1000 nM
"O=C(Nc1cccc(-c2ccnc3c(C(=O)c4cccs4)cnn23)c1)OCCCl [Example 16, 2-chloroethyl 3-[3-(thien-2-ylcarbonyl)pyrazolo[1,5-a]pyrimidin-7-yl]phenylcarbamate]",IC50,[1]; [4],< 1 µM
same,IC50,"LoVo Colon cell line; Homo sapiens, LoVo, 96 h",< 100 nM
"C=C(C)C(=O)Nc1cccc(-c2ccnc3c(C(=O)c4cccs4)cnn23)c1 [Example 36, 2-methyl-N-{3-[3-(thien-2-ylcarbonyl)pyrazolo[1,5-a]pyrimidin-7-yl]phenyl} acrylamide]",IC50,[1]; [5],< 1 µM
same,IC50,LoVo Colon cell line; [6],< 100 nM
"CCCC(Cl)CC(=O)Nc1cccc(-c2ccnc3c(C(=O)c4cccs4)cnn23)c1 (centres unmarked) [Example 121, 3-chloro-N-{3-[3-(thien-2-ylcarbonyl)pyrazolo[1,5-a]pyrimidin-7-yl]phenyl}hexanamide]",IC50,[1]; [7],< 1 µM
"CCCCCCCCCCC(=O)Nc1cccc(-c2ccnc3c(C(=O)c4cccs4)cnn23)c1 [Example 124, N-{3-[3-(thien-2-ylcarbonyl.)pyrazolo[1,5-a]pyrimidin-7-yl]phenyl}undecanamide]",IC50,[1]; [5],10 to 50 µM
"C/C=C/C(=O)Nc1cccc(-c2ccnc3c(C(=O)c4cccs4)cnn23)c1 [Example 129, (2E)-N-{3-[3-(thien-2-ylcarbonyl)pyrazolo[1,5-a]pyrimidin-7-yl]phenyl}but-2-enamide]",IC50,[1]; [7],1 to 10 µM
"O=C(c1cccs1)c1cnn2c(-c3cccc(NC(=O)N4CCOCC4)c3)ccnc12 [Example 131, N-{3-[3-(thien-2-ylcarbonyl)pyrazolo[1,5-a]pyrimidin-7-yl]phenyl}morpholine-4-carboxamide]",IC50,[1]; [7],1 to 10 µM
same,IC50,LoVo Colon cell line; [8],100 to 1000 nM
"CN(C)CCNC(=O)Nc1cccc(-c2ccnc3c(C(=O)c4cccs4)cnn23)c1 [Example 134, N-[2-(dimethylamino)ethyl]-N′-{3-[3-(thien-2-ylcarbonyl)pyrazolo[1,5-a]pyrimidin-7-yl]phenyl}urea]",IC50,[1]; [7],10 to 50 µM
"CCCCCNC(=O)Nc1cccc(-c2ccnc3c(C(=O)c4cccs4)cnn23)c1 [Example 138, N-pentyl-N′-{3-[3-(thien-2-ylcarbonyl)pyrazolo[1,5-a]pyrimidin-7-yl]phenyl}urea]",IC50,LoVo Colon cell line; [8],< 100 nM
"COCCN(CCOC)C(=O)Nc1cccc(-c2ccnc3c(C(=O)c4cccs4)cnn23)c1 [Example 141, N,N-bis(2-methoxyethyl)-N′-{3-[3-(thien-2-ylcarbonyl)pyrazolo[1,5-a]pyrimidin-7-yl]phenyl}urea]",IC50,LoVo Colon cell line; [8],1000 to 20000 nM
"O=C(Nc1cccc(-c2ccnc3c(C(=O)c4cccs4)cnn23)c1)OCC1CCCCC1 [Example 148, Cyclohexylmethyl 3-[3-(thien-2-ylcarbonyl)pyrazolo[1,5-a]pyrimidin-7-yl]phenylcarbarmate]",IC50,[1]; [5],< 1 µM
same,IC50,LoVo Colon cell line; [6],< 100 nM
"Cc1cc(-c2cccc(NC(=O)C3CO3)c2)n2ncc(C(=O)c3cccs3)c2n1 (centres unmarked) [Example 191, {3-[5-Methyl-3-(2-thienylcarbonyl)pyrazolo[1,5-a]pyrimidin-7-yl]phenyl}-2-oxiranecarboxamide]",IC50,[1]; [2],< 1 µM
"CC(C)COC(=O)Nc1cccc(-c2ccnc3c(Br)cnn23)c1 [Example 225, Isobutyl 3-(3-bromopyrazolo[1,5-a]pyrimidin-7-vl)phenvlcarbamate]",IC50,[1]; [2],10 to 50 µM
"CC(C)NC(=S)Nc1ccc(Cl)c(-c2ccnc3c(C(=O)c4cccs4)cnn23)c1 [Example 237, N-{4-Chloro-3-[3-(thien-2-ylcarbonyl)pyrazolo[1,5-a]pyrimidin-7-yl]phenyl}-N′-isopropylthiourea]",IC50,[1]; [9],1 to 10 µM
same,IC50,"LoVo Colon cell line; Homo sapiens, 96 h, Cellular activity in LoVo cell, 4 days incubation, SRB assay",100 to 1000 nM
"O=C(Nc1cccc(-c2ccnc3c(C(=O)c4cccs4)cnn23)c1)NC1CCCCC1 [Example 249, N-Cyclohexyl-N′-{3-[3-(thien-2-ylcarbonyl)pyrazolo[1,5-a]pyrimidin-7-yl]phenyl}urea]",IC50,[1]; [9],< 1 µM
"CN1CCC(C(=O)Nc2cccc(-c3ccnc4c(C(=O)c5cccs5)cnn34)c2)CC1 [Example 307, 1-Methyl-N-{3-[3-(thien-2-ylcarbonyl)pyrazolo[1,5-a]pyrimidin-7-yl]phenyl}piperidine-4-carboxamide]",IC50,[1]; [9],10 to 50 µM
"CC(CCNc1cccc(-c2ccnc3c(C(=O)c4cccs4)cnn23)c1)CC(C)(C)C (centres unmarked) [Example 321, Thien-2-yl(7-{3-[(3,5,5-trimethylhexyl]amino]phenyl}pyrazolo[1,5-a]pyrimidin-3-yl](thien-2-yl)methanone]",IC50,[1]; [2],1 to 10 µM
same,IC50,LoVo Colon cell line; [3],100 to 1000 nM
"O=C(c1cccs1)c1cnn2c(-c3cccc(NCC4CC=CCC4)c3)ccnc12 (centres unmarked) [Example 324, (7-{3-[(cyclohex-3-en-1-ylmethyl)emnino]phenyl}pyrazolo[1,5-a]pyrimidin-3-yl)-(thien-2-yl)-methanone]",IC50,[1]; [2],< 1 µM
same,IC50,LoVo Colon cell line; [3],< 100 nM
"O=C(CCc1cccnc1)Nc1cccc(-c2ccnc3c(C(=O)c4cccs4)cnn23)c1 [Example 336, 3-Pyridin-3-yl-N-{3-[3-(thien-2-ylcarbonyl)pyrazolo [1,5-a]pyrimidin-7-yl]phenyl}propanamide]",IC50,[1]; [9],1 to 10 µM
"(7-{3-[1-(Cyclobutylmethyl)-1H-pyrazol-3-yl]phenyl}pyrazolo[1,5-a]pyrimidin-3-yl)(thien-2-yl)methanone [Example 404]",IC50,[1]; [2],< 1 µM
same,IC50,LoVo Colon cell line; [3],< 100 nM
"N,N′-Diethyl-3-[3-(2-thienylcarbonyl)-pyrazolo[1,5-a]pyrimidin-7-yl]-benzamide [Example 181]",IC50,[1]; [2],10 to 50 µM
"N-{3-[3-(2-Thienylcarbonyl)pyrazolo[1,5-a]pyrimidin-7-yl]phenyl}-3-trifluoromethyl)benzamide [Example 193]",IC50,[1]; [2],< 1 µM
"tert-Butyl 4-[({3-[3-[3-(thien-2-ylcarbonyl)pyrazolo[1,5-a]pyrimidin-7-yl]phenyl}amino)carbonyl]piperidine-1-carboxylate [Example 295]",IC50,[1]; [2],1 to 10 µM
